According to patent US10059722B2, “Cephalosporin derivatives and methods of use” (priority 2012, dated 2018):
Converted amounts (≈) assume the structure as drawn. Like-named read-outs stand apart in the source and are kept apart here.

How the values were obtained:
[1] = system: non-replicating M. tuberculosis; test: microbe, parasite or virus in culture; assay type: cell-based, Mycobacterium tuberculosis; details: for MIC: Mycobacterium tuberculosis
HepG2 cells = assay type: cell-based
Method: Three lead compounds were identified in the first round of high throughput screening (700 compounds), which had minimal inhibitory concentrations (MIC) of 0.4-0.8 μg/mL after a six day exposure to drug (NRd6) in the model of non-replication at pH 5.0, and LD50's of 100 to >100 μg/mL against HepG2 cells (a 2 day exposure).
Furthermore, LD50 values were determined using a human hepatoma cell line (HepG2) using intracellular ATP levels as a measurement that correlated with cellular viability.

[2] = system: replicating M. tuberculosis; test: MIC under replication (R) conditions; assay type: cell-based, Mycobacterium tuberculosis; details: Mycobacterium tuberculosis
[3] = Table 8, ranges from multiple assays
[4] = 72 h, Table 9, 3 Day Exposure to Drug, read-out: MIC NR 0.01 Inoc.
[5] = 72 h, Table 9, 3 Day Exposure to Drug, read-out: MIC NR 0.1 Inoc.
[6] = read-out: MIC NR at 0.01 Inoc. and 3 Day Exposure to Drug, 7 Day Outgrowth, Table 8, ranges from multiple assays
[7] = read-out: MIC NR at 0.01 Inoc. and 3 Day Exposure to Drug, 11 Day Outgrowth, Table 8, ranges from multiple assays
[8] = 3,4-olefinic isomers, read-out: minimum inhibitory concentration against non-replicating M. tuberculosis
[9] = read-out: minimum inhibitory concentration against replicating M. tuberculosis

Compound	MIC NR at 0.01 Inoc. and 3 Day Exposure to Drug, 7 Day Outgrowth [1, 3] [µg/mL]	MIC NR at 0.01 Inoc. and 3 Day Exposure to Drug, 11 Day Outgrowth [1, 3] [µg/mL]	HepG2 Toxicity LD50 (HepG2 cells; Table 8) [µg/mL]	further results
CCOC(=O)C1=C(C)CS[C@@H]2[C@H](NC(=O)COc3ccc(Cl)cc3)C(=O)N12 [Compound 46]	0.39 (≈ 0.949 µM)	078 (≈ 190 µM)	50	
CC1=C(C(=O)O)N2C(=O)[C@@H](NC(=O)c3ccc(Cl)cc3)[C@H]2SC1 [Compound 114]				MIC [1, 4]: > 100 µg/mL; MIC [1, 5]: > 100 µg/mL; MIC ([2]; Table 9, read-out: MIC R): > 100 µg/mL; HepG2 LD50 (HepG2 cells; human, 2 day): >100 µg/mL
CC1=C(C(=O)O)N2C(=O)[C@@H](NC(=O)CCc3ccc(F)cc3)[C@H]2SC1 [Compound 113]				MIC [1, 4]: > 100 µg/mL; MIC [1, 5]: > 100 µg/mL; MIC ([2]; Table 9, read-out: MIC R): 100 µg/mL (≈ 274 µM); HepG2 LD50 (HepG2 cells; human, 2 day): >100 µg/mL
CC1=C(C(=O)OCc2ccccc2)N2C(=O)[C@@H](NC(=O)COc3ccc(Cl)cc3)[C@H]2SC1 [Compound 102]				MIC [1, 6]: 0.78 µg/mL (≈ 1.65 µM); MIC [1, 7]: 1.56 µg/mL (≈ 3.3 µM); HepG2 Toxicity LD50 (HepG2 cells; human, 2 day): >100 µg/mL
CCCOC(=O)C1=C(C)CS[C@@H]2[C@H](NC(=O)COc3ccc(OC)cc3)C(=O)N12 [Compound 42]	0.20 (≈ 0.476 µM)	0.39 (≈ 0.927 µM)	>100	
C#CCOC(=O)C1=C(C)CS[C@@H]2[C@H](NC(=O)CCc3ccc(Cl)cc3)C(=O)N12 [Compound 97]	0.39 (≈ 0.931 µM)	0.78 (≈ 1.86 µM)	100	
CC1=C(C(=O)O)N2C(=O)[C@@H](NC(=O)Cc3ccc(Cl)cc3)[C@H]2SC1 [Compound 115]				MIC [1, 4]: > 100 µg/mL; MIC [1, 5]: > 100 µg/mL; MIC ([2]; Table 9, read-out: MIC R): 100 µg/mL (≈ 273 µM); HepG2 LD50 (HepG2 cells; human, 2 day): >100 µg/mL
CC1=C(C(=O)O)N2C(=O)[C@@H](NS(=O)(=O)Cc3ccccc3)[C@H]2SC1 [Compound 112]				MIC [1, 4]: > 100 µg/mL; MIC [1, 5]: > 100 µg/mL; MIC ([2]; Table 9, read-out: MIC R): > 100 µg/mL; HepG2 LD50 (HepG2 cells; human, 2 day): >100 µg/mL
CCOC(=O)C1=C(C)CS[C@@H]2[C@H](NC(=O)COc3ccccc3)C(=O)N12 [Compound 40]	0.39 (≈ 1.04 µM)	0.78 (≈ 2.07 µM)	>100	
C#CCOC(=O)C1=C(C)CS[C@@H]2[C@H](NC(=O)COc3ccccc3)C(=O)N12 [Compound 82]	1.56 (≈ 4.04 µM)	3.13 (≈ 8.1 µM)	>100	
CCOC(=O)C1=C(C)CS[C@@H]2[C@H](NC(=O)CCc3ccc(Cl)cc3)C(=O)N12 [Compound 55]	0.20 (≈ 0.489 µM)	0.39 (≈ 0.954 µM)	>100	
C=CC1=C(C(=O)O)N2C(=O)[C@@H](NC(=O)/C(=N\O)c3csc(N)n3)[C@H]2SC1 [Compound 107]				MIC [1, 6]: 50 µg/mL (≈ 126 µM); MIC [1, 7]: 50 µg/mL (≈ 126 µM); HepG2 Toxicity LD50 (HepG2 cells; human, 2 day): >100 µg/mL
C#CCOC(=O)C1=C(C)CS[C@@H]2[C@H](NC(=O)CCc3ccc(OC)cc3)C(=O)N12 [Compound 94]	0.78 (≈ 1.88 µM)	1.56 (≈ 3.76 µM)	>100	
CC1=C(C(=O)OCc2ccccc2)N2C(=O)[C@@H](NC(=O)CCc3ccc(Cl)cc3)[C@H]2SC1 [Compound 100]				MIC [1, 6]: 0.39 µg/mL (≈ 0.828 µM); MIC [1, 7]: 0.78 µg/mL (≈ 1.66 µM); HepG2 Toxicity LD50 (HepG2 cells; human, 2 day): 50 µg/mL
COc1ccc(CCC(=O)N[C@@H]2C(=O)N3C(C(=O)OCc4ccccc4)=C(C)CS[C@H]23)cc1 [Compound 101]				MIC [1, 6]: 0.39 µg/mL (≈ 0.836 µM); MIC [1, 7]: 0.78 µg/mL (≈ 1.67 µM); HepG2 Toxicity LD50 (HepG2 cells; human, 2 day): >100 µg/mL
CCCOC(=O)C1=C(C)CS[C@@H]2[C@H](NC(=O)CCc3ccc(OC)cc3)C(=O)N12 [Compound 51]	0.10 (≈ 0.239 µM)	0.10 (≈ 0.239 µM)		
C#CCOC(=O)C1=C(C)CS[C@@H]2[C@H](NC(=O)COc3ccc(OC)cc3)C(=O)N12 [Compound 85]	0.78 (≈ 1.87 µM)	1.56 (≈ 3.75 µM)	>100	

Compound	MIC NR at 0.01 Inoc. and 3 Day Exposure to Drug, 7 Day Outgrowth [1, 3] [µg/mL]	MIC NR at 0.01 Inoc. and 3 Day Exposure to Drug, 11 Day Outgrowth [1, 3] [µg/mL]	HepG2 Toxicity LD50 (HepG2 cells; Table 8) [µg/mL]	further results
CCCCOC(=O)C1C(C)=CS[C@@H]2[C@H](NC(=O)COc3ccccc3)C(=O)N12 (stereo partly shown) [Compound 98]				MIC [1, 6]: 0.39 µg/mL (≈ 0.964 µM); MIC [1, 7]: 0.39 µg/mL (≈ 0.964 µM); HepG2 Toxicity LD50 (HepG2 cells; human, 2 day): 100 µg/mL
CCCCOC(=O)C1=C(C)CS[C@@H]2[C@H](NC(=O)COc3ccccc3)C(=O)N12 [Compound 118]				MIC [1, 8]: 3.1 µg/mL (≈ 7.66 µM); MIC [2, 9]: 100 µg/mL (≈ 247 µM)
C#CCOC(=O)N[C@@H]1C(=O)N2C(C(=O)OCC#C)=C(C)CS[C@H]12 [Compound 105]				MIC [1, 6]: 6.25 µg/mL (≈ 18.7 µM); MIC [1, 7]: 12.5 µg/mL (≈ 37.4 µM); HepG2 Toxicity LD50 (HepG2 cells; human, 2 day): >100 µg/mL
CCOC(=O)C1=C(C)CS[C@@H]2[C@H](NC(=O)CCc3ccc(OC)cc3)C(=O)N12 [Compound 52]	0.20 (≈ 0.494 µM)	0.39 (≈ 0.964 µM)	>100	
CCCOC(=O)C1=C(C)CS[C@@H]2[C@H](NC(=O)COc3ccc(Cl)cc3)C(=O)N12 [Compound 45]	0.39 (≈ 0.918 µM)	0.39 (≈ 0.918 µM)	100	
CCOC(=O)C1=C(C)CS[C@@H]2[C@H](NC(=O)CCc3ccccc3)C(=O)N12 [Compound 49]	0.20 (≈ 0.534 µM)	0.39 (≈ 1.04 µM)	>100	
CC1=C(C(=O)OCc2ccccc2)N2C(=O)[C@@H](NC(=O)COc3ccccc3)[C@H]2SC1 [Compound 104]				MIC [1, 6]: 1.56 µg/mL (≈ 3.56 µM); MIC [1, 7]: 3.13 µg/mL (≈ 7.14 µM); HepG2 Toxicity LD50 (HepG2 cells; human, 2 day): >100 µg/mL
CCCOC(=O)C1=C(C)CS[C@@H]2[C@H](NC(=O)CCc3ccc(Cl)cc3)C(=O)N12 [Compound 54]	0.20 (≈ 0.473 µM)	0.39 (≈ 0.922 µM)	>100	
C#CCOC(=O)C1=C(C)CS[C@@H]2[C@H](NC(=O)COc3ccc(Cl)cc3)C(=O)N12 [Compound 88]	0.78 (≈ 1.85 µM)	1.56 (≈ 3.71 µM)	100	
C#CCCC(=O)N[C@@H]1C(=O)N2C(C(=O)OCCC)=C(C)CS[C@H]12 [Compound 34]	1.56 (≈ 4.64 µM)	3.13 (≈ 9.3 µM)	>100	
CCCOC(=O)C1=C(C)CS[C@@H]2[C@H](NC(=O)CCc3ccccc3)C(=O)N12 [Compound 48]	0.10 (≈ 0.257 µM)	0.20 (≈ 0.515 µM)	>100	
COc1ccc(OCC(=O)N[C@@H]2C(=O)N3C(C(=O)OCc4ccccc4)=C(C)CS[C@H]23)cc1 [Compound 103]				MIC [1, 6]: 0.78 µg/mL (≈ 1.66 µM); MIC [1, 7]: 1.56 µg/mL (≈ 3.33 µM); HepG2 Toxicity LD50 (HepG2 cells; human, 2 day): >100 µg/mL
CCCCOC(=O)C1C(C)=CS[C@@H]2[C@H](NC(=O)COc3ccccc3)C(=O)N12 (stereo partly shown) [Compound 119]				MIC [1, 8]: 3.1 µg/mL (≈ 7.66 µM); MIC [2, 9]: 100 µg/mL (≈ 247 µM)
C#CCOC(=O)C1=C(C)CS[C@@H]2[C@H](NC(=O)CCc3ccccc3)C(=O)N12 [Compound 91]	0.78 (≈ 2.03 µM)	1.56 (≈ 4.06 µM)	>100	
C#CCOC(=O)C1=C(C)CS[C@@H]2[C@H](N(CC#C)CC#C)C(=O)N12 [Compound 106]				MIC [1, 6]: 12.5 µg/mL (≈ 38.1 µM); MIC [1, 7]: 25 µg/mL (≈ 76.1 µM); HepG2 Toxicity LD50 (HepG2 cells; human, 2 day): 100 µg/mL
CCOC(=O)C1=C(C)CS[C@@H]2[C@H](NC(=O)COc3ccc(OC)cc3)C(=O)N12 [Compound 43]	0.39 (≈ 0.96 µM)	1.56 (≈ 3.84 µM)	>100	
CCCOC(=O)C1=C(C)CS[C@@H]2[C@H](NC(=O)CCc3ccc(OC)cc3)C(=O)N12 [Compound 99]				MIC [1, 6]: 0.1 µg/mL (≈ 0.239 µM); MIC [1, 7]: 0.2 µg/mL (≈ 0.478 µM); HepG2 Toxicity LD50 (HepG2 cells; human, 2 day): >100 µg/mL
